According to ChEMBL document CHEMBL1135564, “Diaryl-dialkyl-substituted pyrazoles: regioselective synthesis and binding affinity for the estrogen receptor” (Bioorg Med Chem Lett, 2002):

Legend:
[1] = target: T1, Estrogen receptor (Homo sapiens) (UniProt P03372); test: Relative binding affinity (RBA) for human Estrogen receptor alpha compared to estradiol
T1 sequence (whole entry): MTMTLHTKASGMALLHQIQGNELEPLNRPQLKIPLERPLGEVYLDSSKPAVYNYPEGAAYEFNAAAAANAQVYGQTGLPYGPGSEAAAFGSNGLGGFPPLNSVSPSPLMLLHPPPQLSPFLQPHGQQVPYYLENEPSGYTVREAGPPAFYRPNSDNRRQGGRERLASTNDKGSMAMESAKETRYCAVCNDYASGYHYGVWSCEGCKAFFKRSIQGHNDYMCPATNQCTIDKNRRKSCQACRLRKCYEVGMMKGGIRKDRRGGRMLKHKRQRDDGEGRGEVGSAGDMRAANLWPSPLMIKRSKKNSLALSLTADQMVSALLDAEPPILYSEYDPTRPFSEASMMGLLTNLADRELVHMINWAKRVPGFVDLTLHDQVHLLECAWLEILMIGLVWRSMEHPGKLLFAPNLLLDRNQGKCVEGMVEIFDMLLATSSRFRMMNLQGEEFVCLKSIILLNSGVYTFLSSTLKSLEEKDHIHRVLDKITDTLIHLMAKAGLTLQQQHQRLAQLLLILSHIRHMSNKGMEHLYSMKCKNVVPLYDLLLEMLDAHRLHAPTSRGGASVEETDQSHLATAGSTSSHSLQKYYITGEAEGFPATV

[2] = target: Estrogen receptor beta (Homo sapiens) (UniProt Q92731); test: Relative binding affinity (RBA) for human Estrogen receptor beta compared to estradiol
Sequence of Estrogen receptor beta (Homo sapiens) (Q92731 whole entry): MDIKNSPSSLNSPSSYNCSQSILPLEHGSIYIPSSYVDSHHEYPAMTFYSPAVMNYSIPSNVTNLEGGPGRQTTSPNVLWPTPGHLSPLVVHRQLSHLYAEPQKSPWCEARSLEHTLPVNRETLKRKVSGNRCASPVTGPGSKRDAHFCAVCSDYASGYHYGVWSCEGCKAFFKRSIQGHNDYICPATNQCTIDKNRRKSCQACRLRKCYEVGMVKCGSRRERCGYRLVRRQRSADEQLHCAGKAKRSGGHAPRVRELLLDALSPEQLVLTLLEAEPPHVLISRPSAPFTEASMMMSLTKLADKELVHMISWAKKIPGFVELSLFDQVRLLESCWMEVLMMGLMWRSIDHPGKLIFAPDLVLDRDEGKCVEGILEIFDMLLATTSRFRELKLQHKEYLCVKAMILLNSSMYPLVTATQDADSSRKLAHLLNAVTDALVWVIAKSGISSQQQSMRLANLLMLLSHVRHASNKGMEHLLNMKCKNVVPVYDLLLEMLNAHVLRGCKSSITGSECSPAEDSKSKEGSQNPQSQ

[3] = target: Estrogen receptor (Homo sapiens) (UniProt Q92731+P03372); test: Selectivity ratio as relative binding affinity for estrogen receptor alpha and beta; type: protein assay

| Affinity [1] | Affinity [2] | Ratio [3] | SMILES |
| --- | --- | --- | --- |
| 0.56 | 0.042 | 13 | Oc1ccc(-c2nn(-c3ccc(O)cc3)c3c2CCCC3)cc1 |
| 1.1 | 0.11 | 9.4 | CCCc1c(-c2ccc(O)cc2)nn(-c2ccc(O)cc2)c1C1CCCCC1 |
| 0.59 | 0.14 | 4.2 | CCc1c(-c2ccc(O)cc2)nn(-c2ccc(O)cc2)c1C1CCCCC1 |
| 74 | 71 | 1 | CCCc1c(-c2ccc(O)cc2)nn(C2CCCC2)c1-c1ccc(O)cc1 |
| 0.19 | 0.047 | 4 | Oc1ccc(-c2nn(-c3ccc(O)cc3)c3c2CCCCC3)cc1 |
| 30 | 13 | 2.3 | CCCc1c(-c2ccc(O)cc2)nn(C2CCCCC2)c1-c1ccc(O)cc1 |
| 3.6 | 0.6 | 6 | CCCc1c(-c2ccc(O)cc2)nn(-c2ccc(O)cc2)c1C1CCCC1 |
| 2.1 | 0.23 | 8.9 | CCc1c(-c2ccc(O)cc2)nn(-c2ccc(O)cc2)c1C1CCCC1 |
| 49 | 0.12 | 410 | CCCc1c(-c2ccc(O)cc2)nn(-c2ccc(O)cc2)c1-c1ccc(O)cc1 |
